Measured values reported in PubChem BioAssay (NCI).
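In this assay, cells in 96-well plates receive the compound at five concentrations for 48 hours. Endpoints are linearly interpolated between the surrounding concentrations. TGI denotes the concentration required for complete inhibition of growth.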

Tested on: SF-295 CNS
Test: DTP human tumour cell line panel, 48 h

Row | Structure (SMILES) | TGI
1 | c1ccc2sc(C3(N4CCCC4)CCCCCC3)cc2c1 | 30.4 µM

Tested on: SK-MEL-2 melanoma
Test: DTP human tumour cell line panel, 48 h

Row | Structure (SMILES) | TGI
2 | S=C(NCc1ccccc1)c1nc[nH]c1C(=S)NCc1ccccc1 | 22.2 µM
3 | O=C(c1ccc(O)cc1)C1c2c3c(cc(O)c2C(c2ccc(O)cc2)C1c1cc(O)cc(O)c1)OC(c1ccc(O)cc1)C3c1cc2c(cc1O)OC(c1ccc(O)cc1)C2c1cc(O)cc(O)c1 (configuration not stated) | > 12.5 µM
4 | Cc1cc2nc3c(C#N)c(-c4ccccc4)cc(Nc4ccc(Cl)cc4)n3c2cc1C | > 100 µM
5 | CCC1(CC)SCc2nc3ccccc3n21 | 85.3 µM
6 | O=C1OC[C@@H]2Cc3cc4c(cc3[C@H](c3ccc5c(c3)OCO5)[C@@H]12)OCO4 | > 25 µM
7 | N#C/C(C(=O)Nc1ccccc1)=C(/N)N1CCOCC1 | > 100 µM
8 | O/N=C1/COC(C(F)(F)F)(C(F)(F)F)C1 | > 100 µM
9 | O=S1(=O)OCCOS(=O)(=O)C1F | > 100 µM
10 | C[C@]12CC[C@H](O)CC1=CC[C@@H]1[C@@H]2CC[C@]2(C)C(=O)[C@@H](N3CCOCC3)C[C@@H]12 | > 100 µM
11 | CC(=O)n1nc(-c2ccccc2)n(/N=C/c2ccc([N+](=O)[O-])cc2)c1=O | > 100 µM
12 | Cc1ccc(S(=O)(=O)N/N=C/C(=C/c2ccc(Cl)cc2)CC(/C=N/NS(=O)(=O)c2ccc(C)cc2)=C\c2ccc(Cl)cc2)cc1 | 24.9 µM
13 | COc1cc(C[S+]2CCCC2)c(SC)cc1C[S+]1CCCC1 | > 100 µM
14 | COCCOCc1nc(C#N)c(N)o1 | > 100 µM
15 | CC1=C(C#N)C(C#N)(C#N)C(NN(C)C)C1 (configuration not stated) | 39.5 µM
16 | C[C@]12C=CC(=O)C=C1CC[C@H]1[C@@H]3C[C@@H](O)[C@](O)(C(=O)CO)[C@@]3(C)C[C@H](O)[C@@]12F | > 100 µM
17 | CCSc1n/c(=C\c2ccco2)c2nnnn12 | > 100 µM
18 | CCOC(=O)C1=C(C)N(C)C23OC4(C(=O)OC)CC2c2ccccc2C1N3C4=O (configuration not stated) | > 100 µM
19 | CC(=O)c1c2c(cc3c1CC1(Cc4ccccc4C1=O)C3)CCC2 (configuration not stated) | 92 µM
20 | COc1cc(Nc2cnc3cc(F)c(F)cc3n2)cc(OC)c1OC | > 100 µM
21 | COc1ccc(C2CC(=O)CC(c3ccc(OC)cc3)C23C(=O)NC(=O)NC3=O)cc1 (configuration not stated) | 46.7 µM
22 | C=C1CC(c2ccc(OCCCN3C(=O)c4ccccc4C3=O)c(OC)c2)OC1=O (configuration not stated) | 18.4 µM

Tested on: SK-OV-3 ovarian
Test: DTP human tumour cell line panel, 48 h

Row | Structure (SMILES) | TGI
23 | S=C(NCc1ccccc1)c1nc[nH]c1C(=S)NCc1ccccc1 | 28.5 µM
24 | Cc1cc2nc3c(C#N)c(-c4ccccc4)cc(Nc4ccc(Cl)cc4)n3c2cc1C | > 100 µM
25 | CC(=O)OCCn1cnc2nc(Nc3ccccc3)nc(Cl)c21 | > 100 µM
26 | CCC1(CC)SCc2nc3ccccc3n21 | > 100 µM
27 | N#C/C(C(=O)Nc1ccccc1)=C(/N)N1CCOCC1 | > 100 µM
28 | O/N=C1/COC(C(F)(F)F)(C(F)(F)F)C1 | > 100 µM
29 | O=S1(=O)OCCOS(=O)(=O)C1F | > 100 µM
30 | C[C@]12CC[C@H](O)CC1=CC[C@@H]1[C@@H]2CC[C@]2(C)C(=O)[C@@H](N3CCOCC3)C[C@@H]12 | > 100 µM
31 | CC(=O)n1nc(-c2ccccc2)n(/N=C/c2ccc([N+](=O)[O-])cc2)c1=O | > 100 µM
32 | COc1ccc(C(=O)Sc2c(-c3ccccc3)c(=O)n(-c3ccccc3)c(=S)n2-c2ccccc2)cc1 | > 100 µM
33 | Cc1ccc(S(=O)(=O)N/N=C/C(=C/c2ccc(Cl)cc2)CC(/C=N/NS(=O)(=O)c2ccc(C)cc2)=C\c2ccc(Cl)cc2)cc1 | > 100 µM
34 | COc1cc(C[S+]2CCCC2)c(SC)cc1C[S+]1CCCC1 | > 100 µM
35 | COCCOCc1nc(C#N)c(N)o1 | > 100 µM
36 | CC1=C(C#N)C(C#N)(C#N)C(NN(C)C)C1 (configuration not stated) | > 100 µM
37 | C[C@]12C=CC(=O)C=C1CC[C@H]1[C@@H]3C[C@@H](O)[C@](O)(C(=O)CO)[C@@]3(C)C[C@H](O)[C@@]12F | > 100 µM
38 | CCSc1n/c(=C\c2ccco2)c2nnnn12 | > 100 µM
39 | CCOC(=O)C1=C(C)N(C)C23OC4(C(=O)OC)CC2c2ccccc2C1N3C4=O (configuration not stated) | > 100 µM
40 | CC(=O)c1c2c(cc3c1CC1(Cc4ccccc4C1=O)C3)CCC2 (configuration not stated) | > 100 µM
41 | CC(=O)NC1C(OCc2ccccc2)OC(CO)C(O)C1OC(C)C(=O)NC(C)C(=O)NC(CCC(=O)NCCCNc1c2ccccc2nc2cccc([N+](=O)[O-])c12)C(N)=O (configuration not stated) | 34.7 µM
42 | COc1cc(Nc2cnc3cc(F)c(F)cc3n2)cc(OC)c1OC | > 100 µM
43 | COC(C)(C)C1=CCC(C)CC1 (configuration not stated) | > 100 µM
44 | C=C1CC(c2ccc(OCCCN3C(=O)c4ccccc4C3=O)c(OC)c2)OC1=O (configuration not stated) | 29.4 µM
45 | c1ccc2sc(C3(N4CCCC4)CCCCCC3)cc2c1 | 35 µM

Tested on: SR leukemia
Test: DTP human tumour cell line panel, 48 h

Row | Structure (SMILES) | TGI
46 | O=C(c1ccc(O)cc1)C1c2c3c(cc(O)c2C(c2ccc(O)cc2)C1c1cc(O)cc(O)c1)OC(c1ccc(O)cc1)C3c1cc2c(cc1O)OC(c1ccc(O)cc1)C2c1cc(O)cc(O)c1 (configuration not stated) | > 12.5 µM
47 | CC(=O)OCCn1cnc2nc(Nc3ccccc3)nc(Cl)c21 | > 100 µM
48 | O=C1OC[C@@H]2Cc3cc4c(cc3[C@H](c3ccc5c(c3)OCO5)[C@@H]12)OCO4 | > 25 µM
49 | N#C/C(C(=O)Nc1ccccc1)=C(/N)N1CCOCC1 | > 100 µM
50 | O/N=C1/COC(C(F)(F)F)(C(F)(F)F)C1 | > 100 µM
51 | O=S1(=O)OCCOS(=O)(=O)C1F | > 100 µM
52 | C[C@]12CC[C@H](O)CC1=CC[C@@H]1[C@@H]2CC[C@]2(C)C(=O)[C@@H](N3CCOCC3)C[C@@H]12 | > 100 µM
53 | CC(=O)n1nc(-c2ccccc2)n(/N=C/c2ccc([N+](=O)[O-])cc2)c1=O | > 100 µM
54 | COc1ccc(C(=O)Sc2c(-c3ccccc3)c(=O)n(-c3ccccc3)c(=S)n2-c2ccccc2)cc1 | > 100 µM
55 | Cc1ccc(S(=O)(=O)N/N=C/C(=C/c2ccc(Cl)cc2)CC(/C=N/NS(=O)(=O)c2ccc(C)cc2)=C\c2ccc(Cl)cc2)cc1 | 24.5 µM
56 | COCCOCc1nc(C#N)c(N)o1 | > 100 µM
57 | CC1=C(C#N)C(C#N)(C#N)C(NN(C)C)C1 (configuration not stated) | > 100 µM
